# Measured values: patent US11535630B2, “Apelin receptor (APJ) agonists and uses thereof” (Research Triangle Institute, priority 2015, dated 2022)
# Counter-ions that a name gives are not always drawn.
# Molecular target: T1, apelin receptor (APJ) (Homo sapiens, UniProt P35414)
# T1 sequence (P35414 1-380): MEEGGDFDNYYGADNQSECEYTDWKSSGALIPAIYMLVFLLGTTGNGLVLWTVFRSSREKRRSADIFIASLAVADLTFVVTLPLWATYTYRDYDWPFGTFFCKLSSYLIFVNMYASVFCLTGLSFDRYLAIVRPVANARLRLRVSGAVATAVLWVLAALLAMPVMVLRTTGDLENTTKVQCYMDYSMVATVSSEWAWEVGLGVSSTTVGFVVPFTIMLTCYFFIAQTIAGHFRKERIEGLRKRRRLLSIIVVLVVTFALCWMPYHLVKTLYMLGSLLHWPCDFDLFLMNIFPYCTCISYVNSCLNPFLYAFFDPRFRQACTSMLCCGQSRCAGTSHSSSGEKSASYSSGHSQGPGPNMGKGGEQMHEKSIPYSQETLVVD
# Assay: In vitro apelin agonist activity (methods of Giddings et al., Apelin-13 as positive control)
# Format: cell-based
# Conditions: EC50 (nM) Ave, in vitro apelin agonist activity, methods of Giddings et al., Apelin-13 as positive control
# Description: Characterization of the Apelin Agonist Activity of the Compounds
# 1:39-47, the contents of which are hereby incorporated by reference in its entirety. Using the methods described in Giddings et al. and Apelin-13 as a positive control.
row,SMILES,EC50
1,"O=C(C[C@H](CCN1CCCC[C@H]1C(F)(F)F)NC(=O)c1cc(-c2ccccc2C(F)(F)F)n(C2CCCC2)n1)NC1CCC1 [compound 496, (3S)-N-cyclobutyl-3-({1-cyclopentyl-5-[2-(trifluoromethyl)phenyl]-1H-pyrazol-3-yl}formamido)-5-[(2S)-2-(trifluoromethyl)piperidin-1-yl]pentanamide]",30 nM
2,"O=C(O)C[C@H](CCN1CC(F)(F)C(F)(F)C(F)(F)C1)NC(=O)c1cc(-c2ccccc2C(F)(F)F)n(C2CCCC2)n1 [compound 566, (3S)-3-({1-cyclopentyl-5-[2-(trifluoromethyl)phenyl]-1H-pyrazol-3-yl}formamido)-5-(3,3,4,4,5,5-hexafluoropiperidin-1-yl)pentanoic acid]",3050 nM

# Same assay, conditions: in vitro apelin agonist activity, methods of Giddings et al., Apelin-13 as positive control; read-out: EC50 (nM) Ave
row,SMILES,EC50
1,"CCc1ccccc1-c1cc(C(=O)N[C@@H](CCN2CCCCC2)CC(=O)O)nn1C1CCCC1 [compound 403, (3S)-3-{[1-cyclopentyl-5-(2-ethylphenyl)-1H-pyrazol-3-yl]formamido}-5-(piperidin-1-yl)pentanoic acid hydrochloride]",42 nM
2,"O=C(C[C@H](CCN1CCCCCC1)NC(=O)c1cc(-c2ccccc2C(F)(F)F)n(C2CCCC2)n1)NC1CCC1 [compound 505, (3S)-5-(azepan-1-yl)-N-cyclobutyl-3-({1-cyclopentyl-5-[2(trifluoromethyl)phenyl]-1H-pyrazol-3-yl}formamido)pentanamide]",34 nM
3,"O=C(C[C@H](CCN1CCCCC1)NC(=O)c1cc(-c2ccccc2C(F)(F)F)n(C2CCCC2)n1)NC1CCC1 [compound 408, (3S)-N-cyclobutyl-3-({1-cyclopentyl-5-[2-(trifluoromethyl)phenyl]-1H-pyrazol-3-yl]formamido)-5-(piperidin-1-yl)pentanamide]",64 nM
4,"COc1cccc(OC)c1-c1cc(C(=O)N[C@@H](CCc2ccccc2)CC(=O)O)nn1-c1ccc(F)cc1 [compound 299, (3S)-3-{[5-(2,6-dimethoxyphenyl)-1-(4-fluorophenyl)-1H-pyrazol-3-yl]formamido}-5-phenylpentanoic acid]",2910 nM
5,COc1cccc(OC)c1-c1cc(C(=O)N[C@@H](CCN2CC3(CCC3)C2)CC(=O)NC2CCC2)nn1C1CCCC1 [compound 349],197 nM
6,"O=C(O)C[C@H](CCN1CC[C@H](F)C1)NC(=O)c1cc(-c2ccccc2C(F)(F)F)n(C2CCCC2)n1 [compound 585, (3S)-3-({1-cyclopentyl-5-[2-(trifluoromethyl)phenyl]-1H-pyrazol-3-yl}formamido)-5-[(3S)-3-fluoropyrrolidin-1-yl]pentanoic acid]",654 nM
7,"O=C(O)C[C@H](CCN1C[C@H](F)[C@@H](F)C1)NC(=O)c1cc(-c2ccccc2C(F)(F)F)n(C2CCCC2)n1 [compound 629, (3S)-3-({1-cyclopentyl-5-[2-(trifluoromethyl)phenyl]-1H-pyrazol-3-yl}formamido)-5-[(3S,4S)-3,4-difluoropyrrolidin-1-yl]pentanoic acid]",77 nM
8,"CN(C(=O)[C@@H](CC(=O)O)NC(=O)c1cc(-c2ccccc2C(F)(F)F)n(C2CCCC2)n1)C1CCCCC1 [compound 558, (3R)-3-[cyclohexyl(methyl)carbamoyl]-3-({1-cyclopentyl-5-[2-(trifluoromethyl)phenyl]-1H-pyrazol-3-yl}formamido)propanoic acid]",1170 nM
9,"CCOc1cc(F)c(-c2cc(C(=O)N[C@@H](CCN3CCCCC3)CC(=O)NC3CCC3)nn2C2CCCC2)c(F)c1 [compound 355, (3S)-N-cyclobutyl-3-{[1-cyclopentyl-5-(4-ethoxy-2,6-difluorophenyl)-1H-pyrazol-3-yl]formamido}-5-(piperidin-1-yl)pentanamide]",5080 nM
10,"Cc1cnn(CC[C@@H](CC(=O)NC2CCC2)NC(=O)c2cc(-c3ccccc3C(F)(F)F)n(C3CCCC3)n2)c1 [compound 501, (3S)-N-cyclobutyl-3-({1-cyclopentyl-5-[2-(trifluoromethyl)phenyl]-1H-pyrazol-3-yl}formamido)-5-(4-methyl-1H-pyrazol-1-yl)pentanamide]",26 nM
11,"Cc1cc(C)n(CC[C@@H](CC(=O)NC2CCC2)NC(=O)c2cc(-c3ccccc3C(F)(F)F)n(C3CCCC3)n2)n1 [compound 503, (3S)-N-cyclobutyl-3-({1-cyclopentyl-5-[2-(trifluoromethyl)phenyl]-1H-pyrazol-3-yl}formamido)-5-(3,5-dimethyl-1H-pyrazol-1-yl)pentanamide]",157 nM
12,"O=C(O)C[C@H](CCN1CCCC(F)(F)C1)NC(=O)c1cc(-c2ccc(Cl)cc2C(F)(F)F)n(C2CCCC2)n1 [compound 555, (3S)-3-({5-[4-chloro-2-(trifluoromethyl)phenyl]-1-cyclopentyl-1H-pyrazol-3-yl}formamido)-5-(3,3-difluoropiperidin-1-yl)pentanoic acid]",1570 nM
13,"C[C@@H](C[C@@H](CC(=O)O)NC(=O)c1cc(-c2ccccc2C(F)(F)F)n(C2CCCC2)n1)N1CCC(F)(F)C1 [compound 572, (3S,5S)-3-({1-cyclopentyl-5-[2-(trifluoromethyl)phenyl]-1H-pyrazol-3-yl}formamido)-5-(3,3-difluoropyrrolidin-1-yl)hexanoic acid]",124 nM
14,"CC(C(=O)O)[C@H](CCN1CC2C(C1)C2(F)F)NC(=O)c1cc(-c2ccccc2C(F)(F)F)n(C2CCCC2)n1 (stereo partly drawn) [compound 635, (2R,3S)-3-({1-cyclopentyl-5-[2-(trifluoromethyl)phenyl]-1H-pyrazol-3-yl}formamido)-5-{6,6-difluoro-3-azabicyclo[13.1.0]hexan-3-yl}-2-methylpentanoic acid]",13 nM
15,CC(C[C@@H](CC(=O)O)NC(=O)c1cc(-c2ccccc2C(C)(F)F)n(C2CCCC2)n1)N1C[C@H](F)[C@@H](F)C1 (some centres unmarked) [compound 595],140 nM
16,"C[C@]1(F)CCCN(CC[C@@H](CC(=O)O)NC(=O)c2cc(-c3ccccc3C(F)(F)F)n(C3CCCC3)n2)C1 [compound 614, (3S)-3-({1-cyclopentyl-5-[2-(trifluoromethyl)phenyl]-1H-pyrazol-3-yl}formamido)-5-[(3S)-3-fluoro-3-methylpiperidin-1-yl]pentanoic acid]",41 nM
17,O=C(N[C@@H](CCN1CCCC(F)(F)C1)Cc1nnc(C(F)(F)F)[nH]1)c1cc(-c2ccccc2Cl)n(C2CCCC2)n1 [compound 459],243 nM
18,"CN(C[C@@H](CC(=O)O)NC(=O)c1cc(-c2ccccc2C(F)(F)F)n(C2CCCC2)n1)C1CCCCC1 [compound 533, (3R)-4-[cyclohexyl(methy)amino1]-3-({1-cyclopentyl-5-[2-(trifluoromethyl)phenyl]-1H-pyrazol-3-yl}formamido)butanoic acid]",822 nM
19,"CCc1ccccc1-c1cc(C(=O)N[C@@H](CCN2CCCC(F)(F)C2)CC(=O)NC2CCC2)nn1C1CCCC1 [compound 412, (3S)-N-cyclobutyl-3-{[1-cyclopentyl-5-(2-ethylphenyl)-1H-pyrazol-3-yl]formamido}-5-(3,3-difluoropiperidin-1-yl)pentanamide]",5 nM
20,"O=C(C[C@H](CC(=O)N1CCCCC1)NC(=O)c1cc(-c2ccccc2C(F)(F)F)n(C2CCCC2)n1)NC1CCC1 [compound 514, (3R)-N-cyclobutyl-3-({1-cyclopentyl-5-[2-(trifluoromethyl)phenyl]-1H-pyrazol-3-yl}formamido)-5-oxo-5-(piperidin-1-yl)pentanamide]",79 nM
21,"CC(C)(C)Cn1nc(C(=O)N[C@@H](CCN2CCCC(F)(F)C2)CC(=O)O)cc1-c1ccccc1C(F)(F)F [compound 568, (3S)-5-(3,3-difluoropiperidin-1-yl)-3-{[1-(2,2-dimethylpropyl)-5-[2-(trifluoromethyl)phenyl]-1H-pyrazol-3-yl]formamido}pentanoic acid]",> 10000 nM
22,"C[C@H](C[C@@H](CC(=O)O)NC(=O)c1cc(-c2ccccc2C(F)(F)F)n(C2CCCC2)n1)N1CCCC(F)(F)C1 [compound 575, (3S,5R)-3-({1-cyclopentyl-5-[2-(trifluoromethyl)phenyl]-1H-pyrazol-3-yl}formamido)-5-(3,3-difluoropiperidin-1-yl)hexanoic acid]",91 nM
23,"O=C(O)C[C@H](CCN1CCCC(F)(F)C1)NC(=O)c1cc(-c2ccccc2C(F)(F)F)n(CC2CCC2)n1 [compound 571, (3S)-3-{[1-(cyclobutylmethyl)-5-[2-(trifluoromethyl)phenyl]-1H-pyrazol-3-yl}formamido}-5-(3,3-difluoropiperidin-1-yl)pentanoic acid]",130 nM
24,"COc1cccc(OC)c1-c1cc(C(=O)N[C@H](CC(=O)O)c2ccccc2)nn1CC(C)C [compound 300, (3R)-3-{[5-(2,6-dimethoxyphenyl)-1-(2-methylpropyl)-1H-pyrazol-3-yl]formamido}-3-phenylpropanoic acid]",> 10000 nM
